Molecules are shown by their SMILES.

We go through four compounds from patent US5317026A, “Acetamide derivative and application thereof” (Snow Brand Milk Products Co., Ltd., priority 1992, dated 1994).

Assay [1] relates to water immersion restrained stress induced ulcer. Put plainly: Water immersion restrained stress induced model. It counts as in vivo, Wister male rats. Particulars: for suppression of ulcers induced by the water dipping stress (in words): rats; for Suppression / Ulcer index: water immersion stress 7 hours; for Ulcer index: control 10.3 ± 4.5; for ED50: po, rat, per os, read-out: ED50 values in rat ulcer models, water immersion restrained stress induced model. As for the experimental part:
Experiments were carried out to investigate the pharmacological activity of Compound RT using ulcer models in Wister male rats. […] Cetraxate and Roxatidine, each suspended in 0.5% carboxymethyl cellulose (CMC), were administered to the rats using a per os probe, in an amount of 0.4 ml/100 g. 10 to 20 minutes after the administration, the animals were placed in an stress cage (manufactured by Natsume Manufacturing Co.) and dipped into water in a thermostat water bath at 21° C. to a depth of their processus xiphoideus to give a stress. After 7 hours, rats were taken out from the cage and sacrificed to cut out their stomach. 10 ml of a 2% formalin solution was charged into each stomach and the stomach was fixed in the solution for 10 minutes. After fixing, the stomach was opened along the greater curvature, and its mucosal surface was roughly washed with water. […] The total of such length (mm) in each animal was taken as an index for the ulcer production. The ulcer suppression rate (%) was determined based on the index applying the following formula. [(Ulcer index for the control)-(Ulcer index for the tested animal)]/(Ulcer index for the control)×100 (3) In order to more clearly identify the activity of Compound RT, both Roxatidine and Cetraxate hydrochloride were administered altogether.

The subject of assay [2] is hydrochloric acid-ethanol induced ulcer. Put plainly: Hydrochloric acid-ethanol induced ulcer. It counts as in vivo, Wister male rats. As to conditions: for suppression of ulcers induced by hydrochloric acid-ethanol (in words): rats; for Suppression / Ulcer index: 60% ethanol containing 150 mM HCl, 1 hour; for Ulcer index: control 41.0 ± 10.9; for ED50: po, rat, per os, read-out: ED50 values in rat ulcer models, hydrochloric acid-ethanol induced ulcer. As for the experimental part:
Experiments were carried out to investigate the pharmacological activity of Compound RT using ulcer models in Wister male rats. Comparative tests were performed using commercial antiulcer drugs; Cetraxate (trade mark) and Roxatidine (trade mark), each having the following chemical structure. [drawing 11] [(Ulcer index for the control)-(Ulcer index for the tested animal)]/(Ulcer index for the control)×100 Groups of Wister male rats weighing 200-230 g, each group consisting of four rats, were fasted for 24 hours and subjected to the experiment. Cetraxate and Roxatidine, each suspended in 0.5% CMC, were administered to the rats using a per os probe, in an amount of 0.4 ml/100 g. […] After 1 hour, rats were sacrificed to cut out their stomach. 10 ml of a 2% formalin solution was charged into each stomach and the stomach was fixed in the solution for 10 minutes. After fixing, the stomach was opened along the greater curvature, and its mucosal surface was roughly washed with water. […] The total of such length (mm) in each animal was taken as an index for the ulcer production. The ulcer suppression rate (%) was determined in the same manner as above. (3) In order to more clearly identify the activity of Compound RT, both Roxatidine and Cetraxate hydrochloride were administered altogether.

The mark [3] stands for this setting: water immersion model, than Cetraxate and Roxatidine.
Where [4] appears, read: hydrochloric acid-ethanol model, than Cetraxate and Roxatidine.

Consider `O=C(COC(=O)[C@H]1CC[C@H](CNC(=O)OCc2ccccc2)CC1)NCCCOc1cccc(CN2CCCCC2)c1` [Compound RTP, 2-(N-carbobenzoxy-trans-p-aminomethylhexanecarboxy)-N-{3-[3-(1-piperidinomethyl)-phenoxy]propyl}acetamide], for which, in assay [1], the “suppression of ulcers induced by the water dipping stress (in words)” value is “effectively suppress the ulcers”. Further, the “suppression of ulcers induced by hydrochloric acid-ethanol (in words)” value in assay [2] is given as “effectively suppress the ulcers”.

In assay [1] (36 mg/kg per os), `NC[C@H]1CC[C@H](C(=O)OCC(=O)NCCCOc2cccc(CN3CCCCC3)c2)CC1` [Compound RT, 2-(trans-p-aminomethylcyclohexanecarboxy)-N-{3-[3-(1-piperidinomethyl)phenoxy]propyl}acetamide] came in with a Suppression of 93.2% and a Ulcer index of 0.7 ± 0.5 mm. Further, the “suppression of ulcers induced by the water dipping stress (in words)” value in assay [1] is listed as “effectively suppress the ulcers”. Moreover, the “effect on the suppression of the acute gastroduodenal ulcer compared with combined use of the two comparative drugs (in words)” value in assay [1] (versus combined use of the two comparative drugs) is “remarkably greater effect”. In addition, in assay [1] (setting [3]), the “rate of suppression compared with Cetraxate and Roxatidine (in words)” value is given as “higher rate of suppression”; the “ulcer index compared with Cetraxate and Roxatidine (in words)” value is recorded as “lower ulcer index”. Also, in assay [2] (58 mg/kg per os), the Suppression is on record as 87.6% and the Ulcer index was 5.1 ± 5.5 mm. Also, in assay [2] (setting [4]), the “rate of suppression compared with Cetraxate and Roxatidine (in words)” value is recorded as “higher rate of suppression”; the “ulcer index compared with Cetraxate and Roxatidine (in words)” value is recorded as “lower ulcer index”. Also, in assay [2], the “suppression of ulcers induced by hydrochloric acid-ethanol (in words)” value is “effectively suppress the ulcers”. The “activity against the hydrochloric acid-ethanol induced ulcer compared with combined Roxatidine and Cetraxate hydrochloride (in words)” value in assay [2] (versus Roxatidine and Cetraxate hydrochloride administered altogether) is “almost the same as the case where both Roxatidine and Cetraxate hydrochloride were administered altogether”.

In general, ED50 refers to the dose at which the effect has come halfway, by size or by number of responders. With `NC[C@H]1CC[C@H](C(=O)Oc2ccc(CCC(=O)O)cc2)CC1` [Cetraxate, reference compound], the Suppression in assay [1] (25 mg/kg per os) is recorded as 41.7%; in assay [2] (40 mg/kg per os) it was 12.5%. Besides, the Ulcer index in assay [1] (25 mg/kg per os) is listed as 6.0 ± 3.3 mm; in assay [2] (40 mg/kg per os), 35.9 ± 14.7 mm. Besides, the 50% effective dose (ED50) in assay [1] was 200 mg/kg; in assay [2], 60 mg/kg.

With `O=C(CO)NCCCOc1cccc(CN2CCCCC2)c1` [Roxatidine, N-[3-(3-piperidinomethylphenoxy)propyl]hydroxyacetamide, reference compound], the Suppression is reported as 75.7% in assay [1] (25 mg/kg per os) and 64.2% in assay [2] (40 mg/kg per os). Moreover, the figures for the Ulcer index in assay [1] (25 mg/kg per os) and in assay [2] (40 mg/kg per os) were 2.5 ± 1.6 mm and 14.7 ± 9.9 mm, respectively. The ED50 in assay [1] was 25 mg/kg; in assay [2] it was 40 mg/kg.
